The source of these data is patent US20260209211A1, “CYCLIN K DEGRADER AND USE THEREOF” (ADLAI NORTYE BIOPHARMA CO., LTD., priority 2022, published 2026).

Broadly, the IC50 is the concentration that inhibits the measured activity by half.

Like-named read-outs stand apart in the source and are kept apart here.

The subject of assay [1] is NCI-N87 (Human Gastric Cancer Cell). Nature of the assay: Bioactivity detection of NCI-N87 cell growth inhibition (CellTiter-Glo). In kind it is cell-based. The following applies: NCI-N87 cells, 72 hours, highest concentration 10 μM, read-out: N87 CTG IC50. The procedure:
This detection method is used to evaluate the biological activity of the compounds described in this disclosure at the cellular level.
(§1) NCI-N87 cells (purchased from the Chinese Academy of Sciences) were harvested, resuspended in complete medium and adjusted to a cell density of 0.1×10^6 cells per ml. The cell suspension was added to a 96-well plate at a volume of 100 μL per well and cultured overnight in a 37° C., 5% CO2 incubator. Prepare the test compound and add it to the cell plate so that the highest concentration of the compound is 10 μM. Set 8 concentration points according to 3-fold dilution. At the same time, 100% inhibition control wells were set, that is, wells with no cells but only an equal volume of complete culture medium; and 0% inhibition control wells, that is, wells with cells added with 0.1% DMSO. The cell plate was cultured at 37° C. and 5% CO2 for 72 hours. Remove the cell culture plate and add 25 μl CellTiter-Glo Luminescent Cell Viability Reagent (promega cat #G7573) to each well. Incubate in the dark for 10 minutes and then transfer 100 μL to a white plate and use Molecular Devices SpectraMax i3 to detect chemiluminescence. The inhibition rate was calculated using the following formula for data processing: compound inhibition rate=(0% inhibition control well signal−compound treatment well signal)/(0% inhibition control well signal−100% inhibition control well signal)*10000. The calculated data were fitted with four parameters using GraphPad Prism software and the corresponding IC50 was calculated.
Background: In ATP-based viability assays light output follows the ATP content of the culture.

In assay [2] the test system is HGC27 (Human Gastric Cancer Cell). Nature of the assay: Bioactivity assay for HGC27 cell growth inhibition (CellTiter-Glo). It counts as cell-based. The following applies: read-out: HGC27 CTG IC50. The procedure: This detection method is used to evaluate the biological activity of the compounds of the present disclosure at the cellular level.
as §1, with “HGC27” for “NCI-N87”, “0.2×10^6” for “0.1×10^6”, “24” for “72”, “CellTiter-Glo®” for “CellTiter-Glo”, “signal)*100%.” for “signal)*10000.”

Where [3] appears, read: HGC-27, HGC27 cells, 24 hours, CellTiter-Glo, highest concentration 10 μM.

In the case of `FC(F)(F)c1cnc(NCc2ccc3c(c2)[nH]c2cccnc23)nc1OC1COC1` [Compound 2], the IC50 in assay [1] was 26 nM; in assay [2] (setting [3]), 139 nM.
On to `Cn1c2cc(CNc3ncc(C(F)(F)F)c(OC4COC4)n3)ccc2c2ncccc21` [Compound 3], for which the IC50 in assay [2] (setting [3]) was 342 nM.
On to `CC[C@@H](Nc1nc(NCc2ccc3c(c2)[nH]c2cccnc23)ncc1C(F)(F)F)C(N)=O` [Compound 4], for which, in assay [2] (setting [3]), the IC50 came to 238 nM.
With `C[C@@H](O)[C@@H](CO)Nc1nc(NCc2ccc3c(c2)[nH]c2cccnc23)ncc1C(F)(F)F` [Compound 5], the IC50 in assay [2] (setting [3]) was determined as 30 nM.
`Cc1ccnc2c1[nH]c1cc(CNc3ncc(C(F)(F)F)c(OC4COC4)n3)ccc12` [Compound 6]: the IC50 in assay [2] (setting [3]) was determined as 145 nM.
The same measure, in the same setting: for `OCc1ccnc2c1[nH]c1cc(CNc3ncc(C(F)(F)F)c(OC4COC4)n3)ccc12` [Compound 7] the value was 43 nM; for `Cc1ccc2[nH]c3cc(CNc4ncc(C(F)(F)F)c(OC5COC5)n4)ccc3c2n1` [Compound 8], 308 nM.
The same measure, in the same setting: for `FC(F)(F)c1cnc(NCc2ccc3c(c2)oc2cccnc23)nc1OC1COC1` [Compound 9] the value was 292 nM; for `FC(F)(F)c1cnc(NCc2ccc3c(n2)[nH]c2cccnc23)nc1OC1COC1` [Compound 10], 225 nM; for `C[C@@H](O)[C@@H](C)Oc1nc(NCc2ccc3c(c2)[nH]c2cccnc23)ncc1C(F)(F)F` [Compound 11], 62 nM.
In the case of `C[C@@H](O)[C@@H](CO)Nc1nc(NCc2ccc3c(c2)[nH]c2c(CO)ccnc23)ncc1C(F)(F)F` [Compound 13], the IC50 in assay [1] came out at 13 nM; in assay [2] (setting [3]), 41 nM.
Regarding `FC(F)(F)c1cnc(NCc2ccc3c(c2)[nH]c2ncsc23)nc1OC1COC1` [Compound 14], the IC50 in assay [2] (setting [3]) turned out to be 75 nM.
Turning to `Cc1cc2c(cc1CNc1ncc(C(F)(F)F)c(OC3COC3)n1)[nH]c1cccnc12` [Compound 16], the IC50 in assay [2] (setting [3]) was determined as 520 nM.
Still for that read-out and setting: the same measure for `NCc1ccnc2c1[nH]c1cc(CNc3ncc(C(F)(F)F)c(OC4COC4)n3)ccc12` [Compound 19]: 62 nM; for `FC(F)(F)c1cnc(NCc2cc3[nH]c4cccnc4c3s2)nc1OC1COC1` [Compound 20]: 454 nM.
With `CC[C@@H](Nc1nc(NCc2ccc3c(c2)[nH]c2c(CO)ccnc23)ncc1C(F)(F)F)[C@@H](C)O` [Compound 23], the IC50 in assay [2] (setting [3]) came out at 13 nM.
For the compound `N#Cc1cccc2c3ccc(CNc4ncc(C(F)(F)F)c(OC5COC5)n4)cc3nn12` [Compound 24], in assay [2] (setting [3]), the IC50 turned out to be 80 nM.
On to `OCc1cccc2c3ccc(CNc4ncc(C(F)(F)F)c(OC5COC5)n4)cc3nn12` [Compound 26], for which the IC50 in assay [2] (setting [3]) turned out to be 387 nM.
Turning to `C[C@@H](O)[C@@H](C)Oc1nc(NCc2ccc3c(c2)[nH]c2c(CN)ccnc23)ncc1C(F)(F)F` [Compound 27], the IC50 in assay [2] (setting [3]) was found to be 21 nM.
Regarding `NCc1cccc2c3ccc(CNc4ncc(C(F)(F)F)c(OC5COC5)n4)cc3nn12` [Compound 28], the IC50 in assay [2] (setting [3]) turned out to be 313 nM.
On to `FC(F)(F)c1cnc(NCc2ccc3c(c2)[nH]c2scnc23)nc1OC1COC1` [Compound 29], for which the IC50 in assay [2] (setting [3]) came to 374 nM.
`CC[C@@H](Nc1nc(NCc2ccc3c(c2)[nH]c2c(CN)ccnc23)ncc1C(F)(F)F)C(N)=O` [Compound 33]: the values for the IC50 in assay [1] and in assay [2] (setting [3]) were 10 nM and 32 nM, respectively.
In the case of `C[C@@H](O)[C@@H](C)Nc1nc(NCc2ccc3c(c2)[nH]c2c(CN)ccnc23)ncc1C(F)(F)F` [Compound 34], the IC50 in assay [1] turned out to be 1.7 nM; in assay [2] (setting [3]), 7 nM.
For `COc1ccnc2c1[nH]c1cc(CNc3ncc(C(F)(F)F)c(OC4COC4)n3)ccc12` [Compound 35], in assay [2] (setting [3]), the IC50 stood at 120 nM.
Consider `FC(F)(F)c1cnc(NCc2ccc3c(c2)nn2cccnc32)nc1OC1COC1` [Compound 36], for which the IC50 in assay [2] (HGC-27, 24 h) is 133 nM.
Take `OCc1ccnc2c3ccc(CNc4ncc(C(F)(F)F)c(OC5COC5)n4)cc3nn12` [Compound 39]: the IC50 in assay [1] stood at 9 nM; in assay [2] (setting [3]), 54 nM.
Turning to `CC[C@@H](Nc1nc(NCc2ccc3c(c2)nn2c(CO)ccnc32)ncc1C(F)(F)F)C(N)=O` [Compound 40], the IC50 in assay [1] is 7 nM; in assay [2] (setting [3]), 121 nM.
In the same order, the values of `NCc1ccnc2c1[nH]c1cc(CNc3ncc(C(F)(F)F)c(N[C@@H](C(N)=O)C4CC4)n3)ccc12` [Compound 42] are 13 nM and 20 nM.
Take `FC(F)(F)c1cnc(NCc2ccc3c(c2)[nH]c2ncccc23)nc1OC1COC1` [Compound 45]: the IC50 in assay [2] (setting [3]) turned out to be 89 nM.
On the same count and under the same terms, the same measure for `C[C@@H](Nc1nc(NCc2ccc3c(c2)[nH]c2c(CO)ccnc23)ncc1C(F)(F)F)C(N)=O` [Compound 46]: 79 nM; for `CC[C@@H](Nc1nc(NCc2ccc3c(c2)[nH]c2c(CNC(C)=O)ccnc23)ncc1C(F)(F)F)C(N)=O` [Compound 47]: 266 nM.
As for `CC(C)[C@@H](Nc1nc(NCc2ccc3c(c2)[nH]c2c(CN)ccnc23)ncc1C(F)(F)F)C(N)=O` [Compound 48], the IC50 in assay [1] amounted to 20 nM; in assay [2] (setting [3]), 53 nM.
Take `FC(F)(F)c1cnc(NCc2ccc3c(c2)nn2ccncc32)nc1OC1COC1` [Compound 49]: in assay [2] (HGC-27, 24 h), the IC50 was determined as 510 nM.
For `CC(C)[C@@H](Nc1nc(NCc2ccc3c(c2)nn2c(CO)ccnc32)ncc1C(F)(F)F)C(N)=O` [Compound 50], the concentration for half-maximal inhibition (IC50) in assay [2] (setting [3]) stood at 257 nM.
`FC(F)(F)c1cnc(NCc2ccc3c(c2)nc2cccnn23)nc1OC1COC1` [Compound 51]: the IC50 in assay [2] (setting [3]) stood at 145 nM.
`NCc1ccnc2c1[nH]c1cc(CNc3ncc(C(F)(F)F)c(N[C@@H](C(N)=O)C4CCCC4)n3)ccc12` [Compound 52]: the half-maximal inhibitory concentration (IC50) was 32 nM in assay [1] and 39 nM in assay [2] (setting [3]).
Turning to `NCc1ccnc2c1[nH]c1cc(CNc3ncc(C(F)(F)F)c(N[C@H](CC4CC4)C(N)=O)n3)ccc12` [Compound 53], the IC50 was determined as 48 nM in assay [1] and 29 nM in assay [2] (setting [3]).
On to `CCC[C@@H](Nc1nc(NCc2ccc3c(c2)[nH]c2c(CN)ccnc23)ncc1C(F)(F)F)C(N)=O` [Compound 54], for which the half-inhibitory concentration (IC50) in assay [1] and in assay [2] (setting [3]) was 32 nM in each case.
Regarding `CC(C)(C)[C@@H](Nc1nc(NCc2ccc3c(c2)[nH]c2c(CN)ccnc23)ncc1C(F)(F)F)C(N)=O` [Compound 55], the IC50 in assay [1] came out at 19 nM; in assay [2] (HGC-27, 24 h), 26 nM.
For the compound `NCc1ccnc2c1[nH]c1cc(CNc3ncc(C(F)(F)F)c(N[C@@H](C(N)=O)C4CCC4)n3)ccc12` [Compound 56], the half-maximal inhibitory concentration (IC50) amounted to 30 nM in assay [1] and 25 nM in assay [2] (setting [3]).
Regarding `CO[C@@H](C)[C@@H](Nc1nc(NCc2ccc3c(c2)[nH]c2c(CN)ccnc23)ncc1C(F)(F)F)C(N)=O` [Compound 57], the figures for the IC50 in assay [1] and in assay [2] (setting [3]) were 11 nM and 14 nM, respectively.
In the case of `N#Cc1ccnc2c1[nH]c1cc(CNc3ncc(C(F)(F)F)c(N[C@@H]4CN(C(=O)CO)CC[C@@H]4O)n3)ccc12` [Compound 92], the IC50 in assay [2] (setting [3]) came out at 48 nM.
`N#Cc1ccnc2c3ccc(CNc4ncc(C(F)(F)F)c(N[C@@H]5CNCC[C@@H]5O)n4)cc3nn12` [Compound 96]: the IC50 in assay [2] (setting [3]) came to 110 nM.
For the compound `CC[C@@H](Nc1nc(NCc2ccc3c(c2)[nH]c2c(CO)ccnc23)ncc1C(F)(F)F)C(=O)NC` [Compound 99], in assay [1], the IC50 came to 117 nM.
For the compound `CC[C@@H](Nc1nc(NCc2ccc3c(c2)[nH]c2c(CO)ccnc23)ncc1C(F)(F)F)C(=O)N(C)C` [Compound 100], the IC50 in assay [1] came out at 112 nM.
